Laboratory results from patent publication US20100260852A1, “LAXATIVE AGENT” (priority 2007, published 2010).

Assays:
Assay type in all cases: in vivo, rat
Conditions in all cases: 300 mg/Kg p.o.
male rats (SPF) [1] = test: Gastric ulceration test (acetic acid ulceration models)
Description: The influence of the composite magnesium oxide particles obtained in Example 3 upon gastric ulceration was investigated using male rats (SPF). For comparison, magnesium oxide particles (MgO) manufactured by Kyowa Chemical Industry Co., Ltd. were used. The rats were abdominally operated under anesthesia with pentobarbital sodium (10 mg/Kg, i.p.), 30 μL of 20% acetic acid was injected into the submucosal coat at the boundary between the body of stomach and the vestibular region of the pyloric from the serosal side to prepare acetic acid ulceration models. […] On the day following the last administration, the stomachs of the models were extracted under anesthesia with pentobarbital sodium (40 mg/Kg, i.p.) to measure the long diameter and short diameter (mm) of an ulcer.

male rats (SPF) [2] = test: Indometacin-inducted gastric mucosa damage test
Description: (§1) administration route: oral administration applied dose: 5 mL/Kg administration means: administered by using a disposable injection cylinder and a sonde for oral administration administration time: administered 60 minutes before the preparation of a gastric mucosa damaged model
(§2) After about 24 hours of fasting, the rats were put into a stress cage (manufactured by Natsume Seisakusho Co., Ltd.), and the cage was immersed in a water tank at 23° C. 6 hours after that, the blood was removed from the rats to kill them under anesthesia with pentobarbital sodium (40 mg/Kg, i.p.), and the stomachs of these rats were extracted. 10 mL of a 1% formalin solution was injected into the stomachs to immerse them in the solution for 10 minutes or more. The stomachs were cut open along the greater curvature to measure the length (mm) of a damage by a stereomicroscope. The total of damages of each rat was taken as the damage coefficient of the rat.
An indometacin-inducted gastric mucosa damage test was conducted on male rats (SPF) by using the composite magnesium oxide particles obtained in Example 5. For comparison, magnesium oxide manufactured by Kyowa Chemical Industry Co., Ltd. was used.
After about 24 hours of fasting, 30 mg/Kg of indometacin (15 mg/mL: suspended by using a 0.5% methylcellulose aqueous solution) was subcutaneously administered to each rat. […]

male rats (SPF) [3] = test: Aspirin-inducted gastric mucosa damage test
Description: as §1, §2
An aspirin-inducted gastric mucosa damage test was conducted on male rats (SPF) by using the composite magnesium oxide particles obtained in Example 5. For comparison, magnesium oxide manufactured by Kyowa Chemical Industry Co., Ltd. was used.
After about 24 hours of fasting, 125 mg/Kg of aspirin (62.5 mg/mL: suspended by using a methylcellulose aqueous solution) was orally administered to each rat twice every 2 hours. […]

male rats (SPF) [4] = test: Ethanol-inducted gastric mucosa damage test
Description: as §1, §2
An ethanol-inducted gastric mucosa damage test was conducted on male rats (SPF) by using the composite magnesium oxide particles obtained in Example 5. For comparison, magnesium oxide manufactured by Kyowa Chemical Industry Co., Ltd. was used.
After about 24 hours of fasting, 1 mL of ethanol (99.5%) was orally administered to each rat. […]

male rats (SPF) [5] = test: Water immersion stress gastric mucosa damage test
Description: A water immersion stress gastric mucosa damage test was conducted on male rats (SPF) using the composite magnesium oxide particles obtained in Example 5. For comparison, magnesium oxide manufactured by Kyowa Chemical Industry Co., Ltd. was used.
as §1, §2

SMILES: [O]=[Mg] [Comparative example, magnesium oxide]
- Inhibition ratio of gastric lesion (male rats (SPF) [1]): 19%
- Damage coefficient (Lesions area) (male rats (SPF) [1]; once each day for 10 days, 6 rats): 5.2 ± 1.0 mm^2
- Damage coefficient (Lesions) (male rats (SPF) [2]; indometacin 30 mg/Kg s.c., 5 hours, 6 rats): 0.0 ± 0.0 mm
- Inhibition ratio (male rats (SPF) [2]; indometacin-inducted): 100%
- Damage coefficient (Lesions) (male rats (SPF) [3]; aspirin 125 mg/Kg orally twice, 4 hours after second, 6 rats): 27.8 ± 4.3 mm
- Inhibition ratio (male rats (SPF) [3]; aspirin-inducted): 43%
- Damage coefficient (Lesions) (male rats (SPF) [4]; 1 mL ethanol (99.5%) orally, 1 hour, 6 rats): 25.5 ± 8.9 mm
- Inhibition ratio (male rats (SPF) [4]; ethanol-inducted): 48%
- Damage coefficient (Lesions) (male rats (SPF) [5]; 60 min before, water immersion stress 23° C., 6 hours, 6 rats): 18.1 ± 3.6 mm
- Inhibition ratio (male rats (SPF) [5]; water immersion stress): 56%
